Measured values reported in US12310975B2, “Modulators of BCL6 proteolysis and associated methods of use” (Arvinas Operations, Inc., priority 2019, dated 2025).

Biological target: BCL6 (Homo sapiens (Human), UniProt P41182)
Assay: Immunofluorescence high content imaging of BCL6 degradation in T47D cells
Assay type: cell-based
Settings: class symbols A-D, read-out: EC50 (nM)*
Procedure, shortened: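 BCL6 loss was quantified by high-content imaging (10×, 4 fields/well) after PFA fixation and anti-BCL6/Alexa-488 staining with Hoechst nuclear and CellMask counterstains. Compounds were applied for 3 days to T47D breast cancer cells in RPMI-10% FBS, 11 points, 3-fold steps, top 0.1 or 1 μM.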

SMILES	DC50 [nM]
CNC(=O)COc1cc2cc(Nc3nc(N4CCC(c5cn(CCOCCOCCOCCOCCOc6ccc7c(c6)C(=O)N(C6CCC(=O)NC6=O)C7=O)nn5)CC4)ncc3Cl)ccc2n(C)c1=O (stereo not shown) [compound 121, 2-((6-((5-chloro-2-(4-(1-(14-((2-(2,6-dioxopiperidin-3-yl)-1,3-dioxoisoindolin-5-yl)oxy)-3,6,9,12-tetraoxatetradecyl)-1H-1,2,3-triazol-4-yl)piperidin-1-yl)pyrimidin-4-yl)amino)-1-methyl-2-oxo-1,2-dihydroquinolin-3-yl)oxy)-N-methylacetamide]	50 to 100
CNC(=O)COc1cc2cc(Nc3nc(N4CCC(Cc5cn(CCOCC(=O)N[C@H](C(=O)N6C[C@H](O)C[C@H]6C(=O)N[C@@H](C)c6ccc(-c7scnc7C)cc6)C(C)(C)C)nn5)CC4)ncc3Cl)ccc2n(C)c1=O [compound 122, (2S,4R)-1-((S)-2-(2-(2-(4-((1-(5-chloro-4-((1-methyl-3-(2-(methylamino)-2-oxoethoxy)-2-oxo-1,2-dihydroquinolin-6-yl)amino)pyrimidin-2-yl)piperidin-4-yl)methyl)-1H-1,2,3-triazol-1-yl)ethoxy)acetamido)-3,3-dimethylbutanoyl)-4-hydroxy-N-((S)-1-(4-(4-methylthiazol-5-yl)phenyl)ethyl)pyrrolidine-2-carboxamide]	50 to 100
CNC(=O)COc1cc2cc(Nc3nc(N4CCC(Cc5cn(CCOCCOCCOCC(=O)N[C@H](C(=O)N6C[C@H](O)C[C@H]6C(=O)N[C@@H](C)c6ccc(-c7scnc7C)cc6)C(C)(C)C)nn5)CC4)ncc3Cl)ccc2n(C)c1=O [compound 123, (2S,4R)-1-((S)-2-(tert-butyl)-14-(4-((1-(5-chloro-4-((1-methyl-3-(2-(methylamino)-2-oxoethoxy)-2-oxo-1,2-dihydroquinolin-6-yl)amino)pyrimidin-2-yl)piperidin-4-yl)methyl)-1H-1,2,3-triazol-1-yl)-4-oxo-6,9,12-trioxa-3-azatetradecanoyl)-4-hydroxy-N-((S)-1-(4-(4-methylthiazol-5-yl)phenyl)ethyl)pyrrolidine-2-carboxamide]	50 to 100
CNC(=O)COc1cc2cc(Nc3nc(N4CCC(Cc5cn(CCOCCOCCOCCOCCOCC(=O)N[C@H](C(=O)N6C[C@H](O)C[C@H]6C(=O)N[C@@H](C)c6ccc(-c7scnc7C)cc6)C(C)(C)C)nn5)CC4)ncc3Cl)ccc2n(C)c1=O [compound 124, (2S,4R)-1-((S)-2-(tert-butyl)-20-(4-((1-(5-chloro-4-((1-methyl-3-(2-(methylamino)-2-oxoethoxy)-2-oxo-1,2-dihydroquinolin-6-yl)amino)pyrimidin-2-yl)piperidin-4-yl)methyl)-1H-1,2,3-triazol-1-yl)-4-oxo-6,9,12,15,18-pentaoxa-3-azaicosanoyl)-4-hydroxy-N-((S)-1-(4-(4-methylthiazol-5-yl)phenyl)ethyl)pyrrolidine-2-carboxamide]	50 to 100
CNC(=O)COc1cc2cc(Nc3nc(N4CCC(c5ccc(OCCCOCCCOCCOc6ccc7c(c6)CN(C6CCC(=O)NC6=O)C7=O)cc5)CC4)ncc3Cl)ccc2n(C)c1=O (stereo not shown) [compound 125, 2-((6-((5-chloro-2-(4-(4-(3-(3-(2-((2-(2,6-dioxopiperidin-3-yl)-1-oxoisoindolin-5-yl)oxy)ethoxy)propoxy)propoxy)phenyl)piperidin-1-yl)pyrimidin-4-yl)amino)-1-methyl-2-oxo-1,2-dihydroquinolin-3-yl)oxy)-N-methylacetamide]	> 100
CNC(=O)COc1cc2cc(Nc3nc(N4CCC(OCCOCCOCCOCCc5cccc(Oc6ccc7c(c6)CN(C6CCC(=O)NC6=O)C7=O)c5)CC4)ncc3Cl)ccc2n(C)c1=O (stereo not shown) [compound 126, 2-((6-((5-chloro-2-(4-(2-(2-(2-(3-((2-(2,6-dioxopiperidin-3-yl)-1-oxoisoindolin-5-yl)oxy)phenethoxy)ethoxy)ethoxy)ethoxy)piperidin-1-yl)pyrimidin-4-yl)amino)-1-methyl-2-oxo-1,2-dihydroquinolin-3-yl)oxy)-N-methylacetamide]	> 100
CNC(=O)COc1cc2cc(Nc3nc(N4CCC(c5cn(CCOCCOCCOCCOc6ccc7c(c6)C(=O)N(C6CCC(=O)NC6=O)C7=O)nn5)CC4)ncc3Cl)ccc2n(C)c1=O (stereo not shown) [compound 129, 2-((6-((5-chloro-2-(4-(1-(2-(2-(2-(2-((2-(2,6-dioxopiperidin-3-yl)-1,3-dioxoisoindolin-5-yl)oxy)ethoxy)ethoxy)ethoxy)ethyl)-1H-1,2,3-triazol-4-yl)piperidin-1-yl)pyrimidin-4-yl)amino)-1-methyl-2-oxo-1,2-dihydroquinolin-3-yl)oxy)-N-methylacetamide]	> 100
CNC(=O)COc1cc2cc(Nc3nc(N4CCC(Cc5cn(CCOCCOCCOc6ccc7c(c6)C(=O)N(C6CCC(=O)NC6=O)C7=O)nn5)CC4)ncc3Cl)ccc2n(C)c1=O (stereo not shown) [compound 130, 2-((6-((5-chloro-2-(4-((1-(2-(2-(2-((2-(2,6-dioxopiperidin-3-yl)-1,3-dioxoisoindolin-5-yl)oxy)ethoxy)ethoxy)ethyl)-1H-1,2,3-triazol-4-yl)methyl)piperidin-1-yl)pyrimidin-4-yl)amino)-1-methyl-2-oxo-1,2-dihydroquinolin-3-yl)oxy)-N-methylacetamide]	> 100
CNC(=O)COc1cc2cc(Nc3nc(N4CCC(Cc5cn(CCOCCOCCOCCOc6ccc7c(c6)C(=O)N(C6CCC(=O)NC6=O)C7=O)nn5)CC4)ncc3Cl)ccc2n(C)c1=O (stereo not shown) [compound 131, 2-((6-((5-chloro-2-(4-((1-(2-(2-(2-(2-((2-(2,6-dioxopiperidin-3-yl)-1,3-dioxoisoindolin-5-yl)oxy)ethoxy)ethoxy)ethoxy)ethyl)-1H-1,2,3-triazol-4-yl)methyl)piperidin-1-yl)pyrimidin-4-yl)amino)-1-methyl-2-oxo-1,2-dihydroquinolin-3-yl)oxy)-N-methylacetamide]	> 100
CNC(=O)COc1cc2cc(Nc3nc(N4CCC(Cc5cn(CCOCCOCCOCCOCCOc6ccc7c(c6)C(=O)N(C6CCC(=O)NC6=O)C7=O)nn5)CC4)ncc3Cl)ccc2n(C)c1=O (stereo not shown) [compound 132, 2-((6-((5-chloro-2-(4-((1-(14-((2-(2,6-dioxopiperidin-3-yl)-1,3-dioxoisoindolin-5-yl)oxy)-3,6,9,12-tetraoxatetradecyl)-1H-1,2,3-triazol-4-yl)methyl)piperidin-1-yl)pyrimidin-4-yl)amino)-1-methyl-2-oxo-1,2-dihydroquinolin-3-yl)oxy)-N-methylacetamide]	> 100
CNC(=O)COc1cc2cc(Nc3nc(N4CCC(OCc5ccccc5OCCCCOCCOCCOc5ccc6c(c5)CN(C5CCC(=O)NC5=O)C6=O)CC4)ncc3Cl)ccc2n(C)c1=O (stereo not shown) [compound 136, 2-((6-((5-chloro-2-(4-((2-(4-(2-(2-((2-(2,6-dioxopiperidin-3-yl)-1-oxoisoindolin-5-yl)oxy)ethoxy)ethoxy)butoxy)benzyl)oxy)piperidin-1-yl)pyrimidin-4-yl)amino)-1-methyl-2-oxo-1,2-dihydroquinolin-3-yl)oxy)-N-methylacetamide]	> 100

Other lines, results leading:

DC50 [nM]	SMILES
> 100	CNC(=O)COc1cc2cc(Nc3nc(N4CCC(Cc5cn(CCOCCOCC(=O)N[C@H](C(=O)N6C[C@H](O)C[C@H]6C(=O)N[C@@H](C)c6ccc(-c7scnc7C)cc6)C(C)(C)C)nn5)CC4)ncc3Cl)ccc2n(C)c1=O [compound 133, (2S,4R)-1-((S)-2-(2-(2-(2-(4-((1-(5-chloro-4-((1-methyl-3-(2-(methylamino)-2-oxoethoxy)-2-oxo-1,2-dihydroquinolin-6-yl)amino)pyrimidin-2-yl)piperidin-4-yl)methyl)-1H-1,2,3-triazol-1-yl)ethoxy)ethoxy)acetamido)-3,3-dimethylbutanoyl)-4-hydroxy-N-((S)-1-(4-(4-methylthiazol-5-yl)phenyl)ethyl)pyrrolidine-2-carboxamide]
> 100	CNC(=O)COc1cc2cc(Nc3nc(N4CCC(OCCOCCOCCOCCOc5ccccc5Oc5ccc6c(c5)CN(C5CCC(=O)NC5=O)C6=O)CC4)ncc3Cl)ccc2n(C)c1=O (stereo not shown) [compound 134, 2-((6-((5-chloro-2-(4-(2-(2-(2-(2-(2-((2-(2,6-dioxopiperidin-3-yl)-1-oxoisoindolin-5-yl)oxy)phenoxy)ethoxy)ethoxy)ethoxy)ethoxy)piperidin-1-yl)pyrimidin-4-yl)amino)-1-methyl-2-oxo-1,2-dihydroquinolin-3-yl)oxy)-N-methylacetamide]
> 100	CNC(=O)COc1cc2cc(Nc3nc(N4CCC(OCCOCCOCCOCc5ccc(Oc6ccc7c(c6)CN(C6CCC(=O)NC6=O)C7=O)cc5)CC4)ncc3Cl)ccc2n(C)c1=O (stereo not shown) [compound 135, 2-((6-((5-chloro-2-(4-(2-(2-(2-((4-((2-(2,6-dioxopiperidin-3-yl)-1-oxoisoindolin-5-yl)oxy)benzyl)oxy)ethoxy)ethoxy)ethoxy)piperidin-1-yl)pyrimidin-4-yl)amino)-1-methyl-2-oxo-1,2-dihydroquinolin-3-yl)oxy)-N-methylacetamide]
50 to 100	CNC(=O)COc1cc2cc(Nc3nc(N4CCC(OCCCOc5ccc6c(c5)CN(C5CCC(=O)NC5=O)C6=O)CC4)ncc3Cl)ccc2n(C)c1=O (stereo not shown) [compound 139, 2-((6-((5-chloro-2-(4-(3-((2-(2,6-dioxopiperidin-3-yl)-1-oxoisoindolin-5-yl)oxy)propoxy)piperidin-1-yl)pyrimidin-4-yl)amino)-1-methyl-2-oxo-1,2-dihydroquinolin-3-yl)oxy)-N-methylacetamide]
> 100	CNC(=O)COc1cc2cc(Nc3nc(N4CCC(OCCCOCCCOc5ccc6c(c5)CN(C5CCC(=O)NC5=O)C6=O)CC4)ncc3Cl)ccc2n(C)c1=O (stereo not shown) [compound 140, 2-((6-((5-chloro-2-(4-(3-(3-((2-(2,6-dioxopiperidin-3-yl)-1-oxoisoindolin-5-yl)oxy)propoxy)propoxy)piperidin-1-yl)pyrimidin-4-yl)amino)-1-methyl-2-oxo-1,2-dihydroquinolin-3-yl)oxy)-N-methylacetamide]
